The data set relates to MCF-7 cells. In words: Growth inhibition of siRNA-transfected MCF-7 cells, SYBR Green I DNA content. The conditions noted are these: 10 nM siRNA; standardized against control siRNA. It counts as cell-based, human. On the procedure: A549 cells (human lung cancer cell line; ATCC No. CCL-185), SK-MeI-5 cells (human melanoma cell line; ATCC No. HTB-70), MCF-7 cells (human adenocarcinoma cell line; ATCC No. HTB-22), HCT-116 cells (colorectal carcinoma; ATCC CCL-247) and HCT-116 p53 null cells (derived from ATCC No. CCL-247; Bunz et al., Science 282:1497-1501, 1998) were cultured in RPMI 1640 medium with 10% v/v heat-inactivated fetal calf serum (FCS). Cells were seeded at a density of 5×10^4 cells/cm^2 in multi-well tissue culture plates. […] The cellular DNA content was measured using a SYBR Green I-based fluorometric assay at 24, 48, 72 and 96 hours after transfection (120 hours for the MCF-7 cells), as follows. […]
The following day, cell lysates were mixed thoroughly, and DNA fluorescence was measured with a Wallac Victor^2 plate reader (Turku, Finland) set at an excitation frequency of 485 nm and measuring emission at 535 nm.
siRNA-mediated RNAi was also determined on a panel of different cell lines. A549, SK-MeI-5, wt HCT-116, HCT-116−/−p53 and MCF-7 cells were transfected with 10 nM siRNAs targeting YBX-1 and growth inhibition determined as described above. […]

“SEQ ID NO: 4982: siRNA targeting YBX1 (chain 1 TTTGCTGGTAATTGCGTGGAGGACC; chain 2 UUUGCUGGUAAUUGCGUGGAGGACC; chemistry not given here; one strand in two spellings)”: the “growth inhibition, MCF7 cells” value is recorded as “++ (At least 50% inhibition)”.

For the origin of these results see patent US20080145313A1, “Compositions and Methods for the Treatment and Prevention of Neoplastic Disorders” (Genesis Research & Development Corporation Limited, priority 2006, published 2008).
